According to article PMC10053230, “Constituents of the Stem Bark of Symphonia globulifera Linn. f. with Antileishmanial and Antibacterial Activities” (Molecules, 2023):
Converted amounts (≈) assume the structure as drawn. Read-outs that look alike come from different tables or passages of the source.

How the values were obtained:
[1] = Cytotoxicity, Alamar blue assay; format: cell-based; details: mouse; Raw 264.7 macrophage cells; read-out: Macrophages CC50 ± SD
Description: (§1) (2010) with little modifications. […] Test plates were incubated for 28 h at 28 °C, followed by the addition of 1 mg/mL resazurin. […] The cytotoxicity profile of the crude extract and compounds was assessed using the Alamar blue assay (Mosman, 1983) against Raw 264.7 macrophage cells.

[2] = system: Raw 264.7 macrophage cells; experiment: Cytotoxicity, Alamar blue assay; format: cell-based; details: for Selectivity Index SI (=CC50/IC50): CC50 Raw 264.7 macrophages / IC50 L. donovani
Description: as §1

[3] = system: L. donovani NR-48822 promastigotes; experiment: In vitro antileishmanial assay, resazurin colorimetric method; format: cell-based, Leishmania donovani; details: 28 h at 28 °C, triplicate; for IC50: Leishmania donovani, read-out: Antileishmanial Activity IC50 ± SD
Description: The antileishmanial activity on cultured L. donovani 1S (MHOM/SD/62/1S) promastigotes was evaluated using the resazurin colorimetric method as described by Siqueira-Neto et al. (2010) with little modifications. They were all assessed in triplicate at concentrations ranging from 100 to 0.16 µg/mL for the extract and 50–0.08 µg/mL for the compounds. Test plates were incubated for 28 h at 28 °C, followed by the addition of 1 mg/mL resazurin. The negative and positive controls were 0.1% DMSO and amphotericin B (10–0.016 µg/mL), respectively. The cytotoxicity profile of the crude extract and compounds was assessed using the Alamar blue assay (Mosman, 1983) against Raw 264.7 macrophage cells.

S. aureus ATCC25923 = experiment: Antibacterial broth microdilution (MIC); format: cell-based; details: Staphylococcus aureus, read-out: Antibacterial Activity MIC, Sau
Description: (§2) The minimum inhibitory concentration (MIC) of the samples was evaluated following the broth microdilution method as described by Eloff, with light modifications. The extracts, compounds, and reference drug were dissolved in DMSO-MHB. […] Gentamicin was used as the positive control. Briefly, one hundred microliters of Mueller Hinton Broth was added to all wells of the 96-well plate, and 100 µL of the compounds/extracts was introduced into the wells in the first row (A) and mixed thoroughly. The sample mixture (100 µL) was removed from the well from row A to perform a twofold serial dilution down the rows (B–H). The last 100 µL was discarded. Then, 100 µL of the inoculum was introduced into the corresponding wells. The final volume in each well was 200 µL. Each extract concentration was assayed in triplicate and each test was performed twice. After an incubation period of 18 h at 37 °C, 20 µL of Alamar Blue was added to each well. The plates were then re-incubated for 30 min at 37 °C. A blue color in the well was scored as ‘‘no bacterial growth”, while a pink color was scored as a ‘‘growth occurrence”. MIC values were read at those concentrations where a pronounced change in color formation was noticed (from blue to pink).

[4] = system: Pseudomonas aeruginosa HM801; experiment: Antibacterial broth microdilution (MIC); format: cell-based
Description: as §2

S. enterica NR13555 = experiment: Antibacterial broth microdilution (MIC); format: cell-based; details: Salmonella enterica, read-out: Antibacterial Activity MIC, Se
Description: as §2

[5] = system: Staphylococcus aureus ATCC43300; experiment: Antibacterial broth microdilution (MIC); format: cell-based; details: read-out: Antibacterial Activity MIC, Sa
Description: as §2

[6] = system: Klebsiella pneumoniae clinical isolate; experiment: Antibacterial broth microdilution (MIC); format: cell-based; details: read-out: Antibacterial Activity MIC, Kpc
Description: as §2

Salmonella typhi CPC = experiment: Antibacterial broth microdilution (MIC); format: cell-based; details: Salmonella enterica, read-out: Antibacterial Activity MIC, St
Description: as §2

K. pneumoniae NR41388 = experiment: Antibacterial broth microdilution (MIC); format: cell-based, Klebsiella pneumoniae
Description: as §2

[7] = Pseudomonas aeruginosa HM801, read-out: Antibacterial Activity MIC, Pa
[8] = Klebsiella pneumoniae clinical isolate

| Compound | CC50 [1] [µg/mL] | Selectivity Index SI (=CC50/IC50) [2] | IC50 [3] [µg/mL] | MIC (S. aureus ATCC25923) [µg/mL] | MIC (S. enterica NR13555) [µg/mL] | MIC [5] [µg/mL] | MIC (Salmonella typhi CPC) [µg/mL] | other results |
| --- | --- | --- | --- | --- | --- | --- | --- | --- |
| C=C(C)CCC1CC2(CC=C(C)C)C(=O)C(=C(O)c3ccc(O)c(O)c3)C(=O)C(CC=C(C)C)(C2=O)C1(C)CCC=C(C)C (stereo not shown) [Compound 1, guttiferone U] | 28.1 ± 5.72 (≈ 46.5 µM) | 2.17 | 12.9 ± 1.11 (≈ 21.4 µM) | 3.9 (≈ 6.47 µM) | 62.5 (≈ 104 µM) | 125 (≈ 207 µM) | 3.9 (≈ 6.47 µM) | MIC [4, 7]: 3.9 µg/mL (≈ 6.47 µM); MIC [6, 8]: 3.9 µg/mL (≈ 6.47 µM); Antibacterial Activity MIC, Kp (K. pneumoniae NR41388): 62.5 µg/mL |
| C[C@@H]1[C@H](O)[C@@H](C)/C=C/C=C/C=C/C=C/C=C/C=C/C=C/[C@H](O[C@@H]2O[C@H](C)[C@@H](O)[C@H](N)[C@@H]2O)C[C@@H]2O[C@](O)(C[C@@H](O)C[C@@H](O)[C@H](O)CC[C@@H](O)C[C@@H](O)CC(=O)O[C@H]1C)C[C@H](O)[C@H]2C(=O)O [Amphotericin B, reference compound] | – | – | 0.048 (≈ 0.0519 µM) | – | – | – | – | – |
| CC(C)=CCCC(C)=CCCC(C)=CCCC1(C)CCC2=C(O1)C(C)(O)C(O)C2=O (stereo not shown) [Compound 4, 12-farnesyl-6,7-dihydroxy-7-methyl-3,4,6,7-tetrahydrocyclopenta[b]pyran-5(2H)-one] | > 20 | – | 14 ± 1.14 (≈ 33.7 µM) | 62.5 (≈ 150 µM) | 125 (≈ 300 µM) | 500 (≈ 1200 µM) | 31.2 (≈ 74.9 µM) | MIC ([4]; Pseudomonas aeruginosa, HM801, read-out: Antibacterial Activity MIC, Pa): 31.2 µg/mL (≈ 74.9 µM); MIC ([6]; Klebsiella pneumoniae): 31.2 µg/mL (≈ 74.9 µM); Antibacterial Activity MIC, Kp (K. pneumoniae NR41388): 62.5 µg/mL |
| COc1cc2c(=O)c3c(O)c4c(c(CC=C(C)C)c3oc2c(O)c1O)OC(C)(C)C=C4 [Compound 7, xanthone V2] | > 20 | >1.54 | 12.9 ± 1.11 (≈ 30.4 µM) | – | – | – | – | – |
| 1,5-dihydroxy-3-methoxyxanthone [Compound 10] | – | – | – | – | – | – | – | Macrophages CC50 ± SD ([2]; Raw 264.7 macrophage cells): >20 µg/mL; Antileishmanial Activity IC50 ± SD [3]: 47.04 ± 1.67 µg/mL |
| CC1(C)C=Cc2c(cc3oc4c(O)c5c(cc4c(=O)c3c2O)C=CC(C)(C)O5)O1 [Compound 8, pyranojacareubin] | > 20 | >1.54 | 12.9 ± 1.11 (≈ 32.9 µM) | – | – | – | – | – |
| COc1cc2c(=O)c3c(O)c4c(c(CC=C(C)C)c3oc2c(O)c1OC)OC(C)(C)C=C4 [Compound 6, gaboxanthone] | > 20 | >1.25 | 16 ± 1.2 (≈ 36.4 µM) | – | – | – | – | – |
| CNC(C)C1CCC(N)C(OC2C(N)CC(N)C(OC3OCC(C)(O)C(NC)C3O)C2O)O1 (stereo not shown) [Gentamycin, reference compound] | – | – | – | 0.03 (≈ 0.0628 µM) | 0.07 (≈ 0.147 µM) | 0.07 (≈ 0.147 µM) | 0.048 (≈ 0.101 µM) | MIC [4, 7]: 0.048 µg/mL (≈ 0.101 µM); MIC [6, 8]: 0.048 µg/mL (≈ 0.101 µM) |
